From the supplement of paper PMC10307832

The cell lines below were run with C1=CC2=NC=CN=C2C=C1/C=C/3\C(=O)NC(=O)S3 + CS(=O)(=O)N1CCN(Cc2cc3nc(-c4cccc5[nH]ncc45)nc(N4CCOCC4)c3s2)CC1 [Pictilisib] (partner 1 µM) (assay: relative viability (nuclei count vs DMSO), 5 days (fraction); higher = more cells survive). Conditions: first compound 0.02 µM.
In short: (§1)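 The day after seeding in 1536-well plates, lung cancer cell lines were treated by pin tool with a single drug, or with a fixed anchor-drug dose together with five library-drug doses (not always all listed) in √10 steps. After 5 days, a combined fix-and-stain solution (final 0.05% Triton X-100, 1% formaldehyde, 1 ug/ml Hoechst) was added. Nuclei counted on 4× images gave relative viability as treated counts over vehicle counts, reported as the median of duplicate plates.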

Cell Line | relative viability
201T | 0.606
NCI-H1915 | 0.956
HCC-827 | 1.13
LXF-289 | 0.723
NCI-H23 | 0.396
NCI-H1299 | 0.753
NCI-H647 | 0.546
CAL-12T | 0.341
NCI-H1651 | 0.547
EPLC-272H | 0.411
NCI-H2228 | 0.384
NCI-H1792 | 0.26
NCI-H1355 | 0.274
NCI-H3122 | 0.697
NCI-H1437 | 0.441
NCI-H1755 | 0.423
NCI-H2023 | 0.236
HCC-15 | 0.765
NCI-H1793 | 0.344
PC-14 | 0.636
EKVX | 0.355
LC-2-ad | 0.465
NCI-H1563 | 0.663
NCI-H1944 | 0.284
NCI-H1975 | 0.268
RERF-LC-KJ | 0.502
ABC-1 | 0.676
NCI-H358 | 0.357
NCI-H650 | 0.816
PC-3 [JPC-3] | 0.687

Same assay, conditions: first compound 0.06325 µM

Cell Line | relative viability
201T | 0.799
NCI-H1915 | 1.15
HCC-827 | 0.938
LXF-289 | 0.843
NCI-H23 | 0.688
NCI-H1299 | 0.925
NCI-H647 | 0.483
CAL-12T | 0.444
NCI-H1651 | 0.574
EPLC-272H | 0.407
NCI-H2228 | 0.36
NCI-H1792 | 0.16
NCI-H1355 | 0.411
NCI-H3122 | 0.487
NCI-H1437 | 0.482
NCI-H1755 | 0.403
NCI-H2023 | 0.27
HCC-15 | 0.787
NCI-H1793 | 0.395
PC-14 | 0.75
EKVX | 0.384
LC-2-ad | 0.533
NCI-H1563 | 0.659
NCI-H1944 | 0.349
NCI-H1975 | 0.298
RERF-LC-KJ | 0.457
ABC-1 | 0.67
NCI-H358 | 0.344
NCI-H650 | 0.829
PC-3 [JPC-3] | 0.881

Same assay, conditions: first compound 0.2 µM

Cell Line | relative viability
201T | 0.712
NCI-H1915 | 1.12
HCC-827 | 0.996
LXF-289 | 0.801
NCI-H23 | 0.557
NCI-H1299 | 0.931
NCI-H647 | 0.624
CAL-12T | 0.716
NCI-H1651 | 0.598
EPLC-272H | 0.364
NCI-H2228 | 0.441
NCI-H1792 | 0.341
NCI-H1355 | 0.499
NCI-H3122 | 0.578
NCI-H1437 | 0.434
NCI-H1755 | 0.515
NCI-H2023 | 0.26
HCC-15 | 0.86
NCI-H1793 | 0.328
PC-14 | 0.735
EKVX | 0.42
LC-2-ad | 0.478
NCI-H1563 | 0.691
NCI-H1944 | 0.367
NCI-H1975 | 0.314
RERF-LC-KJ | 0.492
ABC-1 | 0.721
NCI-H358 | 0.402
NCI-H650 | 0.917
PC-3 [JPC-3] | 0.594

Same assay, conditions: first compound 0.6325 µM

Cell Line | relative viability
201T | 0.666
NCI-H1915 | 0.774
HCC-827 | 0.845
LXF-289 | 0.771
NCI-H23 | 0.517
NCI-H1299 | 0.762
NCI-H647 | 0.368
CAL-12T | 0.39
NCI-H1651 | 0.462
EPLC-272H | 0.297
NCI-H2228 | 0.274
NCI-H1792 | 0.214
NCI-H1355 | 0.459
NCI-H3122 | 0.547
NCI-H1437 | 0.347
NCI-H1755 | 0.449
NCI-H2023 | 0.223
HCC-15 | 0.665
NCI-H1793 | 0.294
PC-14 | 0.652
EKVX | 0.422
LC-2-ad | 0.411
NCI-H1563 | 0.635
NCI-H1944 | 0.319
NCI-H1975 | 0.246
RERF-LC-KJ | 0.518
ABC-1 | 0.673
NCI-H358 | 0.38
NCI-H650 | 0.868
PC-3 [JPC-3] | 0.65

Same assay, conditions: first compound 2 µM

Cell Line | relative viability
201T | 0.573
NCI-H1915 | 0.97
HCC-827 | 0.969
LXF-289 | 0.635
NCI-H23 | 0.504
NCI-H1299 | 0.85
NCI-H647 | 0.271
CAL-12T | 0.64
NCI-H1651 | 0.472
EPLC-272H | 0.153
NCI-H2228 | 0.22
NCI-H1792 | 0.296
NCI-H1355 | 0.364
NCI-H3122 | 0.364
NCI-H1437 | 0.317
NCI-H1755 | 0.426
NCI-H2023 | 0.16
HCC-15 | 0.754
NCI-H1793 | 0.263
PC-14 | 0.531
EKVX | 0.375
LC-2-ad | 0.335
NCI-H1563 | 0.634
NCI-H1944 | 0.297
NCI-H1975 | 0.226
RERF-LC-KJ | 0.482
ABC-1 | 0.576
NCI-H358 | 0.258
NCI-H650 | 0.783
PC-3 [JPC-3] | 0.8

Each cell line was assayed with CCN1CCN(c2ccc(Nc3cc(N(C)C(=O)Nc4c(Cl)c(OC)cc(OC)c4Cl)ncn3)cc2)CC1 [BGJ398] + CS(=O)(=O)CCNCc1ccc(-c2ccc3ncnc(Nc4ccc(OCc5cccc(F)c5)c(Cl)c4)c3c2)o1 [Lapatinib] (partner 2 µM) in the same assay as above. Conditions: first compound 0.01 µM.
In short: as §1

Cell Line | relative viability
201T | 1.14
NCI-H1915 | 0.976
HCC-827 | 0.244
LXF-289 | 0.827
NCI-H23 | 1.02
NCI-H1299 | 0.956
NCI-H647 | 1.03
CAL-12T | 0.661
NCI-H1651 | 0.796
EPLC-272H | 1.13
NCI-H2228 | 1.01
NCI-H1792 | 0.928
NCI-H1355 | 0.936
NCI-H3122 | 0.97
NCI-H1437 | 0.829
NCI-H1755 | 1.01
NCI-H2023 | 0.766
HCC-15 | 0.854
NCI-H1793 | 0.652
PC-14 | 0.282
EKVX | 0.178
LC-2-ad | 0.937
NCI-H1563 | 0.926
NCI-H1944 | 0.784
NCI-H1975 | 0.915
RERF-LC-KJ | 0.86
ABC-1 | 1.07
NCI-H358 | 0.452
NCI-H650 | 0.809
PC-3 [JPC-3] | 0.44

Same assay, conditions: first compound 0.03162 µM

Cell Line | relative viability
201T | 1.02
NCI-H1915 | 0.977
LXF-289 | 0.85
NCI-H23 | 1.06
NCI-H1299 | 0.956
NCI-H647 | 1.11
CAL-12T | 0.685
NCI-H1651 | 0.897
EPLC-272H | 0.814
NCI-H2228 | 1.24
NCI-H1792 | 0.874
NCI-H1355 | 1.05
NCI-H3122 | 1.03
NCI-H1437 | 0.762
NCI-H1755 | 1.04
NCI-H2023 | 0.872
HCC-15 | 0.855
PC-14 | 0.255
EKVX | 0.199
LC-2-ad | 1.02
NCI-H1563 | 1.01
NCI-H1944 | 0.813
NCI-H1975 | 0.903
RERF-LC-KJ | 0.88
ABC-1 | 1.06
NCI-H358 | 0.43
NCI-H650 | 0.906

Same assay, conditions: first compound 0.1 µM

Cell Line | relative viability
201T | 0.997
NCI-H1915 | 0.988
HCC-827 | 0.163
LXF-289 | 0.817
NCI-H23 | 1.3
NCI-H1299 | 0.943
NCI-H647 | 1.21
CAL-12T | 0.763
NCI-H1651 | 0.962
EPLC-272H | 0.833
NCI-H2228 | 0.742
NCI-H1792 | 0.999
NCI-H1355 | 1.01
NCI-H3122 | 1.03
NCI-H1437 | 0.905
NCI-H1755 | 1.05
NCI-H2023 | 0.743
HCC-15 | 0.82
NCI-H1793 | 0.564
PC-14 | 0.352
EKVX | 0.204
LC-2-ad | 1
NCI-H1563 | 0.761
NCI-H1944 | 0.84
NCI-H1975 | 0.859
RERF-LC-KJ | 0.908
ABC-1 | 1.16
NCI-H358 | 0.442
NCI-H650 | 0.837
PC-3 [JPC-3] | 0.412

Same assay, conditions: first compound 0.3162 µM

Cell Line | relative viability
201T | 1.02
NCI-H1915 | 1.01
HCC-827 | 0.173
LXF-289 | 0.77
NCI-H23 | 0.99
NCI-H1299 | 0.968
NCI-H647 | 0.949
CAL-12T | 0.726
NCI-H1651 | 0.693
EPLC-272H | 0.748
NCI-H2228 | 1
NCI-H1792 | 0.909
NCI-H1355 | 0.95
NCI-H3122 | 1.07
NCI-H1437 | 0.729
NCI-H1755 | 1.01
NCI-H2023 | 0.894
HCC-15 | 0.969
NCI-H1793 | 0.402
PC-14 | 0.251
EKVX | 0.201
LC-2-ad | 0.978
NCI-H1563 | 0.721
NCI-H1944 | 0.78
NCI-H1975 | 0.899
RERF-LC-KJ | 0.924
ABC-1 | 1.23
NCI-H358 | 0.386
NCI-H650 | 0.841
PC-3 [JPC-3] | 0.478

Same assay, conditions: first compound 1 µM

Cell Line | relative viability
201T | 0.697
NCI-H1915 | 0.928
HCC-827 | 0.2
LXF-289 | 0.7
NCI-H23 | 1.07
NCI-H1299 | 0.972
NCI-H647 | 1.06
CAL-12T | 0.585
NCI-H1651 | 0.676
EPLC-272H | 0.497
NCI-H2228 | 1.04
NCI-H1792 | 0.756
NCI-H1355 | 0.644
NCI-H3122 | 1.08
NCI-H1437 | 0.644
NCI-H1755 | 1.01
NCI-H2023 | 0.742
HCC-15 | 0.974
NCI-H1793 | 0.427
PC-14 | 0.31
EKVX | 0.169
LC-2-ad | 0.912
NCI-H1563 | 0.669
NCI-H1944 | 0.603
NCI-H1975 | 0.785
RERF-LC-KJ | 0.724
ABC-1 | 1.22
NCI-H358 | 0.519
NCI-H650 | 0.597
PC-3 [JPC-3] | 0.348
